SMILES strings stand for the structures.

From US5145869A, “Phenylsulfonylalkanoic acid compounds and pharmaceuticals thereof” (Kissei Pharmaceutical Co., Ltd., priority 1991, dated 1992) come the findings set out here.

The first experiment deals with T1, CCK-Receptor (Rattus norvegicus, UniProt P30551).
T1 construct: Pancreatic plasma membranes were prepared by the method of Chang et al; from tissue; host or cells: pancreatic plasma membranes of male Wistar rats
T1 sequence (P30551 1-444): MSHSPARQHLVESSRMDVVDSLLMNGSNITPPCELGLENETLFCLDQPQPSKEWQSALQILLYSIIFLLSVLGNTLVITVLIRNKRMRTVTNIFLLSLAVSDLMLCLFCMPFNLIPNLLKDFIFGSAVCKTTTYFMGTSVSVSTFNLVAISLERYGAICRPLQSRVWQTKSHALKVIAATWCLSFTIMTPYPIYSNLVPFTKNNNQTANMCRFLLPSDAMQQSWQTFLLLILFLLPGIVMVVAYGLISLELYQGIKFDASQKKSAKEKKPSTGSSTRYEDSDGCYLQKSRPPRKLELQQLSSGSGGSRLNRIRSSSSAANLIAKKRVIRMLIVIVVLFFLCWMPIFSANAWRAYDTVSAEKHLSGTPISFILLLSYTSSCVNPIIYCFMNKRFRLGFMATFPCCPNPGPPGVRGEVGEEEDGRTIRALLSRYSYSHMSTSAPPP
Briefly: CCK-Receptor Binding Assay in Pancreas. The note with it: inhibition of specific 125I-CCK-8 (30 pM) binding, rat pancreatic plasma membranes, 37° C., 30 minutes, pH 7.4. Further details: species or system Male Wistar rats. The procedure: CCK-Receptor Binding Assay in Pancreas
Pancreatic plasma membranes were prepared by the method of Chang et al. (Molecular Pharmacology, Vol. 30, p. 212-, 1986). Male Wistar rats were sacrificed by decapitation and the pancreas was removed. The pancreas was dissected free from adipose tissue and minced in 50 volumes ice-cold Tris-HCl buffer (50 mM, pH 7.4 at 37° C.). Homogenization was performed using ultra disperser and the homogenate was centrifuged at 50,000×g for 10 minutes. The pellet was washed by resuspension in the same volume of fresh Tris-HCl buffer and again centrifuged as above. The final pellet was suspended in assay buffer (50 mM Tris-HCl, 5 mM MgCl2, 5 mM dithiothreitol, 2 mg/ml of bovine serum albumin, and 0.14 mg/ml of bacitracin), and used as receptor sources for binding assay.
Thirty pM ^125 I-CCK-8 (final concentration), test drug or vehicle (for total binding) or 10^-6 M CCK-8 (for nonspecific binding) were added to the assay medium containing pancreatic plasma membranes (0.5 mg of original wet weight/ml). After incubation at 37° C. for 30 minutes, the assay medium was filtrated under reduced pressure through glass fiber filter and washed four times with 4 ml of ice-cold Tris-HCl buffer. The radioactivity trapped on the filter was counted by γ-counter (Packard 5650).
Specific binding was defined as the radioactivity bound after subtracting nonspecific binding determined in the presence of 10^-6 M unlabeled CCK-8. IC50 value was calculated from inhibition percentage of specific binding by each test drug.
Take `CCCCCN(CCCCC)C(=O)C(CCC(=O)O)CS(=O)(=O)c1ccc(Cl)c(Cl)c1` (single isomer, unassigned) [Compound 21]: the IC50 was 1.1 µM.

For the compound `O=C(O)CCC(CS(=O)(=O)c1ccc(Cl)c(Cl)c1)C(=O)N(CCc1ccccc1)CCc1ccccc1` (stereo not drawn) [Compound 44], the IC50 worked out at 0.23 µM. With `CCCCCCCN(CCCCCCC)C(=O)C(CCC(=O)O)CS(=O)(=O)c1ccc(Cl)c(Cl)c1` (racemic) [Compound 34], the half-inhibitory concentration (IC50) was determined as 0.43 µM. Same read-out and setting: with `CCCCCN(CCCc1ccccc1)C(=O)C(CCC(=O)O)CS(=O)(=O)c1ccc(Cl)c(Cl)c1` (stereo not drawn) [Compound 43] the figure was 0.11 µM; with `CCCCCN(CCCOC)C(=O)C(CCC(=O)O)CS(=O)(=O)c1ccc(Cl)c(Cl)c1` (racemic) [Compound 22, 5-(3,4-dichlorophenylsulfonyl)-4-[N-(3-methoxypropyl)-N-pentylcarbamoyl]pentanoic acid], 0.23 µM; with `CCCCCN(CCCCC)C(=O)C(CCC(=O)O)CS(=O)(=O)c1cccc(Cl)c1` (racemic) [Compound 27], 4.7 µM. Compound `CCCCCN(CCCCC)C(=O)C(CC(=O)OC)CS(=O)(=O)c1ccc(Cl)c(Cl)c1` (stereo not drawn) [Compound 11] came in with an IC50 of 0.98 µM. On the same count and under the same terms, the value for `CCCCCN(CCCCC)C(=O)C(CCC(=O)O)CS(=O)(=O)c1ccc(Cl)cc1` (stereo not drawn) [Compound 26] was 1 µM; that for `CCCCCCN(CCCCCC)C(=O)C(CCC(=O)O)CS(=O)(=O)c1ccc(Cl)c(Cl)c1` (racemic) [Compound 33] was 0.059 µM. On the same count and under the same terms, with `O=C(O)CCC(CS(=O)(=O)c1ccc(Cl)c(Cl)c1)C(=O)N(CCCc1ccccc1)CCCc1ccccc1` (stereo not drawn) [Compound 45] the figure was 1 µM; with `CCCCCN(CCCCC)C(=O)C(CCC(=O)O)CS(=O)(=O)c1ccc(C)c(C)c1` (stereo not drawn) [Compound 48], 0.29 µM; with `CN(Cc1ccccc1)C(=O)C(CCC(=O)O)CS(=O)(=O)c1ccc(Cl)c(Cl)c1` (stereo not drawn) [Compound 47], 1.8 µM. With `CCCCCCN(CCCCc1ccccc1)C(=O)C(CCC(=O)O)CS(=O)(=O)c1ccc(Cl)c(Cl)c1` (stereo not drawn) [Compound 46], the IC50 turned out to be 0.57 µM. On the same count and under the same terms, with `CCCCCN(CCc1ccccc1)C(=O)C(CCC(=O)O)CS(=O)(=O)c1ccc(Cl)c(Cl)c1` (stereo not drawn) [Compound 42, 5-(3,4-dichlorophenylsulfonyl)-4-(N-pentyl-N-phenethylcarbamoyl)pentanoic acid] the figure was 0.21 µM; with `CCCCCN(CCCOC)C(=O)C(CCC(=O)O)CS(=O)(=O)c1ccc(Cl)c(Cl)c1` (single isomer, unassigned) [Compound 24], 4 µM.

Compound `CCCCCN(CCCCC)C(=O)C(CCC(=O)O)CS(=O)(=O)c1ccc([N+](=O)[O-])cc1` (stereo not drawn) [Compound 50] registered an IC50 of 0.73 µM. The same measure, in the same setting: with `COC(=O)CCC(CS(=O)(=O)c1ccc(Cl)c(Cl)c1)C(=O)N(C)Cc1ccccc1` (stereo not drawn) [Compound 41, methyl 4-(N-benzyl-N-methylcarbamoyl)-5-(3,4-dichlorophenylsulfonyl)pentanoate] the figure was 3.5 µM; with `CCCCCN(CCCCC)C(=O)C(CCC(=O)O)CS(=O)(=O)c1ccc(Cl)c(Cl)c1` (racemic) [Compound 19, 5-(3,4-Dichlorophenylsulfonyl)-4-(N,N-dipentylcarbamoyl)pentanoic acid], 0.2 µM. The same measure, in the same setting: with `CCCCCN(CCCCC)C(=O)C(CCC(=O)O)CS(=O)(=O)c1cccc(Br)c1` (racemic) [Compound 28] the figure was 3 µM. `CCCCCN(CCCCC)C(=O)C(CCC(=O)O)CS(=O)(=O)c1ccc(Cl)c(Cl)c1` (single isomer, unassigned) [Compound 20] came in with an IC50 of 0.11 µM. Still for that read-out and setting: with `CCCCCN(CCCCC)C(=O)C(CCC(=O)O)CS(=O)(=O)c1ccc(C(C)=O)cc1` (stereo not drawn) [Compound 51, 5-(4-Acetylphenylsulfonyl)-4-(N,N-dipentylcarbamoyl)pentanoic acid] the figure was 2 µM; with `CCCCCN(CCCCC)C(=O)C(CCC(=O)O)CS(=O)(=O)c1cc(Cl)cc(Cl)c1` (stereo not drawn) [Compound 25], 1.5 µM. Still for that read-out and setting: the value for `CCCCCN(CCCCC)C(=O)C(CCC(=O)OC)CS(=O)(=O)c1ccc(Cl)c(Cl)c1` (racemic) [Compound 1, Methyl 5-(3,4-dichlorophenylsulfonyl)-4-(N,N-dipentylcarbamoyl)pentanoate] was 0.88 µM.

Regarding `CC(C)CCN(CCC(C)C)C(=O)C(CCC(=O)O)CS(=O)(=O)c1ccc(Cl)c(Cl)c1` (racemic) [Compound 35], the IC50 came to 0.13 µM. On the same count and under the same terms, with `CCCCN(C)C(=O)C(CCC(=O)O)CS(=O)(=O)c1ccc(Cl)c(Cl)c1` (racemic) [Compound 31] the figure was 8.8 µM; with `CCCCCN(CCCCC)C(=O)C(CCCC(=O)O)CS(=O)(=O)c1ccc(Cl)c(Cl)c1` (racemic) [Compound 30], 0.23 µM; with `CCCCCN(CCCCC)C(=O)C(CCCC(=O)OC)CS(=O)(=O)c1ccc(Cl)c(Cl)c1` (stereo not drawn) [Compound 12], 4.8 µM. Still for that read-out and setting: the value for `CCCCCN(CCCCC)C(=O)C(CC(=O)O)CS(=O)(=O)c1ccc(Cl)c(Cl)c1` (racemic) [Compound 29] was 0.095 µM; that for `CCCCN(CCCC)C(=O)C(CCC(=O)O)CS(=O)(=O)c1ccc(Cl)c(Cl)c1` (racemic) [Compound 32] was 0.28 µM; that for `CCCCCN(CCCCC)C(=O)C(CCC(=O)OCC)CS(=O)(=O)c1ccc(Cl)c(Cl)c1` (stereo not drawn) [Compound 18] was 1.1 µM.

Take `CCCCCCN(CCCCc1ccccc1)C(=O)C(CCC(=O)OC)CS(=O)(=O)c1ccc(Cl)c(Cl)c1` (stereo not drawn) [Compound 40]: the IC50 worked out at 5.8 µM. This IC50 is about 5.3-fold higher than that of the compound before.

Turning to `CCCCCN(CCCOC)C(=O)C(CCC(=O)O)CS(=O)(=O)c1ccc(Cl)c(Cl)c1` (single isomer, unassigned) [Compound 23], the IC50 is 0.29 µM. Same read-out and setting: with `CCCCCN(CCCCC)C(=O)C(CCC(=O)O)CS(=O)(=O)c1ccc(C)cc1` (stereo not drawn) [Compound 49] the figure was 3.4 µM.

A further experiment concerns amylase secretion stimulated by CCK-8. Briefly: Effect on Amylase Secretion in Rats. The experiment is classed as in vivo, Male Wistar rats. The note with it: Rattus norvegicus, intraduodenal administration 30 minutes before CCK-8 (10 μg/kg, subcutaneous), anesthetized rats. As to the method: Effect on Amylase Secretion in Rats
Male Wistar rats were anesthetized with urethane (1.5 g/kg, S.C.), and tracheal cannula was inserted. Biliopancreatic juice was collected from the cannula which had been inserted into the common bile duct. Thirty minutes after intraduodenal administration of test drug, amylase secretion was stimulated by subcutaneous injection of CCK-8 (10 μg/kg). Amylase concentration in the sample collected every 30 minutes during experiment was assayed using Amylase B Test (Wako), and ED50 value was calculated.
As to `CCCCCN(CCCOC)C(=O)C(CCC(=O)O)CS(=O)(=O)c1ccc(Cl)c(Cl)c1` (racemic) [Compound 22, 5-(3,4-dichlorophenylsulfonyl)-4-[N-(3-methoxypropyl)-N-pentylcarbamoyl]pentanoic acid], the 50% effect level (ED50) was put at a dose of 9.5 mg/kg. Still for that read-out and setting: with `CCCCCN(CCCCC)C(=O)C(CCC(=O)O)CS(=O)(=O)c1ccc(Cl)c(Cl)c1` (racemic) [Compound 19, 5-(3,4-Dichlorophenylsulfonyl)-4-(N,N-dipentylcarbamoyl)pentanoic acid] the figure was 2.2 mg/kg; with `CCCCCN(CCCCC)C(=O)C(CCC(=O)O)CS(=O)(=O)c1ccc(Cl)c(Cl)c1` (single isomer, unassigned) [Compound 20], 4.7 mg/kg.

A further experiment concerns gallbladder contraction induced by CCK-8. Briefly: CCK-Antagonism in Isolated Gallbladder. Type of experiment: cell-based, male Hartley guinea-pig. The note with it: Cavia porcellus; antagonism of gallbladder strip contraction induced by 10^-8 M CCK-8, 37° C. The procedure:
CCK-Antagonism in Isolated Gallbladder
Gallbladder strips isolated from male Hartley guinea-pig were prepared and suspended in Magnus bath filled with Krebs solution (1 g of initial tension). The solution kept at 37° C. was aerated with a mixture of 95% O2 and 5% CO2. The isometric contraction of strips was recorded through a force-displacement transducer. Antagonism by test drugs against gallbladder contraction induced by 10^-8 M CCK-8 was examined and IC50 value was calculated.
As to `CCCCCN(CCCOC)C(=O)C(CCC(=O)O)CS(=O)(=O)c1ccc(Cl)c(Cl)c1` (racemic) [Compound 22, 5-(3,4-dichlorophenylsulfonyl)-4-[N-(3-methoxypropyl)-N-pentylcarbamoyl]pentanoic acid], the IC50 is 3.4 µM.

In turn, `CCCCCN(CCCCC)C(=O)C(CCC(=O)O)CS(=O)(=O)c1ccc(Cl)c(Cl)c1` (racemic) [Compound 19, 5-(3,4-Dichlorophenylsulfonyl)-4-(N,N-dipentylcarbamoyl)pentanoic acid] came in with a concentration for half-maximal inhibition (IC50) of 11 µM. This IC50 lies about 3.2-fold higher than the previous one. Take `CCCCCN(CCCCC)C(=O)C(CCC(=O)O)CS(=O)(=O)c1ccc(Cl)c(Cl)c1` (single isomer, unassigned) [Compound 20]: the IC50 worked out at 5.1 µM.
